Data taken from US9784746B2, “Method for studying transport of an agent across a bilayer membrane in bioanalytical sensor applications” (Bio-Rad Laboratories, Inc., priority 2008, dated 2017).

Assays:
[1] = Membrane transport of ions across gramicidin-containing liposomes (SPR); format: physicochemical; conditions: gramicidin incorporated for K+ co-transport; FIG. 7
Text: Information of this type is of high relevance in studies on how, for example, drugs influence the permeability of cell-membranes. Both passive and membrane-protein mediated transfer of uncharged solutes is of high biological and pharmaceutical relevance. However, for a method like this to be generically applicable for any type of membrane transport reaction, also ion translocation should be possible to measure, which is today typically measured using patch-clamp based assays. FIG. 7 illustrates membrane transport of iodide (˜10 s) and chloride (˜200 s) ions, in excellent agreement with literature data. Note that gramicidin was incorporated into the liposomes in order to ensure co-transport of counter ions (K+), thus prohibiting the establishment of an electrostatic transmembrane potential that would otherwise restrict the unhindered transport of anions.

[2] = Melittin binding to tethered POPC liposomes (Biacore SPR)
Experimental: Liposomes were made by first evaporating the solvent, chloroform, from the POPC lipids using a flow of nitrogen gas. The dried lipids were then kept under the flow of nitrogen gas for at least one hour after which HEPES-2 was added to yield a 4 mg/ml concentration of POPC. The dissolved POPC lipids were vortexed for at least 30 min to yield multi-laminar liposomes. Uni-laminar liposomes were produced using a mini extruder and polycarbonate membranes with pore size of 50 nm from Avanti Polar Lipids® with a 50 nm pore size. […] The liposomes were stored under nitrogen gas at 4° C. until use (within 2 days).
A mixture (300 μl) of HS-PEG (200 μg/ml) and HS-PEG-Biotin (20 μg/ml), dissolved in HEPES-2, were injected over the Biacore® Au sensor chip at a flow rate of 5 μl/min. Then a mixture (150 μl) of NeutrAvidin (40 μg/ml) and Biotin-DNA (0.7 μM) was injected and bound to HS-PEG-Biotin at the surface.
POPC liposomes (2 mg/ml, in HEPES-2) containing cholesterol-DNA tags (3 DNA tags per liposome) were injected at a flow rate of 5 μl/min. The end of the DNA-part of the cholesterol-DNA tag is single-stranded and complementary in sequence to the Biotin-DNA at the surface enabling tethering of the liposomes to the sensor surface.
The reversible binding of melittin was measured in the Biacore® instrument directly after the tethering of POPC liposomes was finished. Melittin solutions at a concentration of 0.5-40 μM in HEPES-2 were injected in sequence. During injection the melittin molecules bind to the liposomes and after the injection is terminated, running buffer (HEPES-2) flows over the surface and melittin dissociates. After the dissociation was complete a new melittin solution of different concentration was injected.
Melittin solutions of various concentrations (0.5-40 μM) were injected over the bound liposomes in the Biacore® instrument at 5 μl/min. The change in response (RU) as a function of time (t) was fitted to RU=RU0+RU1*(1−exp(−t/τ1))+RU2*(1−exp(−t/τ2)). However, the change in RU during the injection of 0.5 μM melittin could be described using only one exponential (i.e. RU2=0). It is known that high concentrations of melittin can rupture cells and liposomes. Unspecific binding (i.e. binding to the biosensor surface without liposomes) of melittin was small, less than 5% of the binding of melittin to the liposome membrane surface (data not shown).

[3] = Melittin pore mediated sucrose uptake into tethered liposomes (SPR refractive index); format: physicochemical
Experimental: After tethering of NeutrAvidin/Biotin-DNA the following injections were made in sequential order; 0.1 M sucrose, 2 mg/ml cholesterol-DNA tagged POPC-liposomes, 0.1 M sucrose, 40 μM melittin, 0.1 M sucrose, 0.1 M sucrose, 0.1 M sucrose. All samples were dissolved in HEPES-2.
A simple method for real-time and label-free uptake measurements of analytes across membranes at a biosensor surface would be of great value when investigating for example membrane transporters. Here we wanted to test if it was possible to measure the uptake of an analyte, sucrose, through the melittin pore by simply detecting the change in refractive index of the solution inside the liposome caused by the analyte as it is taken up.
Adding sucrose changes the refractive index of the solution in the detection volume, i.e. the volume corresponding to the evanescent field above the sensor surface, which is manifested as a shift in RU. […]
The amplitude of the uptake decrease from S3 to S5, which is explained by a decreasing number of liposomes having pores. […] The expected RU of the 7400 sucrose molecules (0.1 M) inside the liposome can be calculated from the obtained response of immobilizing the liposome itself (RU=6790). […] Since only ˜85% of the liposomes have pores the expected value is 480/0.85≈560 RU, which is in good agreement with the measured response of 530 RU from the S3 injection.

[4] = Glycerol transport across liposome membrane versus cholesterol content (SPR); format: physicochemical
Experimental: At first 70 nm liposomes were provided in accordance with Example 1. […] Also shown in FIG. 4b (dashed curve) is an identical rinsing step without immobilized liposomes, illustrating that the time constant of the fluidic exchange is faster than 100 ms, which is sufficient to temporally resolve these transport measurements. The rate of glycerol release was examined in a temperature interval from 8 to 22° C. […] In agreement with expectations, the rate of transport across the lipid membrane increases with increasing temperature, and Arrhenius plots display a linear dependence between ln(1/) and 1/T, yielding activation energies in excellent agreement with literature data for the three solutes (glycerol, urea and hydroxyurea) investigated, see FIG. 5b.
70 nm liposomes containing 40% cholesterol were provided in accordance with Example 1. Binding of the liposomes followed by repeated injection cyclodextrin, which removes cholesterol from the lipid bilyaer of the liposomes is shown in FIG. 6a. The SPR response is proportional to the interfacial refractive index, which makes it possible to quantify the removal of cholesterol. […]
Each injection of cyclodextrin (FIG. 6a) was followed by an injection pulse of glycerol, which enabled the time constant of glycerol transport versus cholesterol content to be quantified, ranging from around 7 s at 40% cholesterol to 1 s at 14% cholesterol, see FIG. 6b. […]

[5] = Cyclodextrin removal of cholesterol from liposome bilayer (SPR); conditions: after seven injections; start 40% cholesterol
Text: 70 nm liposomes containing 40% cholesterol were provided in accordance with Example 1. Binding of the liposomes followed by repeated injection cyclodextrin, which removes cholesterol from the lipid bilyaer of the liposomes is shown in FIG. 6a. The SPR response is proportional to the interfacial refractive index, which makes it possible to quantify the removal of cholesterol. After seven injections of cyclodextrin, the cholesterol content was reduced to 14%.

[6] = outer membrane, fast phase, fit of k1 vs [Mel]B, 0.5-40 μM, HEPES-2

I [iodide]
membrane transport time [1]: ~10 s

CC[C@H](C)[C@H](NC(=O)CN)C(=O)NCC(=O)N[C@@H](C)C(=O)N[C@H](C(=O)N[C@@H](CC(C)C)C(=O)N[C@@H](CCCCN)C(=O)N[C@H](C(=O)N[C@@H](CC(C)C)C(=O)N[C@H](C(=O)N[C@H](C(=O)NCC(=O)N[C@@H](CC(C)C)C(=O)N1CCC[C@H]1C(=O)N[C@@H](C)C(=O)N[C@@H](CC(C)C)C(=O)N[C@H](C(=O)N[C@@H](CO)C(=O)N[C@@H](Cc1c[nH]c2ccccc12)C(=O)N[C@H](C(=O)N[C@@H](CCCCN)C(=O)N[C@@H](CCCNC(=N)N)C(=O)N[C@@H](CCCCN)C(=O)N[C@@H](CCCNC(=N)N)C(=O)N[C@@H](CCC(N)=O)C(=O)N[C@@H](CCC(N)=O)C(N)=O)[C@@H](C)CC)[C@@H](C)CC)[C@@H](C)O)[C@@H](C)O)C(C)C)C(C)C [melittin]
k+2 (apparent, slower kinetic phase, binding to inner membrane) ([2]; linear fit of k2 vs [Mel]B): 56 M⁻¹ s⁻¹
k−2 (slower kinetic phase, binding to inner membrane) ([2]; linear fit of k2 vs [Mel]B): 0.0046 s⁻¹
microscopic off-rate k−1 of melittin with the liposome membrane surface [2, 6]: 0.032 s⁻¹
microscopic on-rate k+1 of melittin with the liposome membrane surface [2, 6]: 3684 M⁻¹ s⁻¹

OC[C@H]1O[C@@](CO)(O[C@H]2O[C@H](CO)[C@@H](O)[C@H](O)[C@H]2O)[C@@H](O)[C@@H]1O [sucrose]
decay time for uptake of sucrose τ3 ([3]; 0.1 M sucrose after 40 μM melittin (S3), estimated from FIG. 3): ≈ 20 sec
number of sucrose molecules that cross the membrane per liposome ([3]; in ˜20 sec, inside concentration 0.1 M): ~7400

OCC(O)CO [glycerol]
time constant of glycerol transport ([4]; 14% cholesterol): ~1 s
time constant of glycerol transport ([4]; 40% cholesterol): around 7 s

cyclodextrin
cholesterol content of liposomes after cyclodextrin [5]: 14%

Cl [chloride]
membrane transport time [1]: ~200 s
